Results from patent publication US20170209417A1, “POLYCOMPLEX GEL FOR TREATING DISEASES OF INTESTINAL/DIGESTIVE TRACT” (priority 2014, published 2017).

How the values were obtained:
[1] = tested on: allergic agglutinating autoantibodies; conditions: in vivo, iv
rabbits = conditions: rabbit, in vivo
Procedure: Besides, it is necessary to point out that the claimed polycomplex gel is characterized by the absence of allergenic properties. Considering the fact that nowadays, an obligatory stage of a new medicine study is the evaluation of the allergenicity thereof, the claimed polycomplex gel has passed a verification on the basis of the Arthus-Sakharov test. For this purpose, six rabbits of both sexes weighting from 2.0 to 2.5 kg were injected with thymogen under sterile conditions subcutaneously on one side of the back with the dose of 10 mg/kg in 1.0 ml of sodium chloride isotonic solution and 1 ml of hors serum subcutaneously into the back on the other side. The rabbits of the control group were injected, instead of thymogen, with 1 ml of sodium chloride isotonic solution. The injections of thymogen and of horse serum were repeated for 6 times with a 5-6 days' interval.

Titer growth of allergic agglutinating autoantibodies [1]: not accompanied by any titer growth
Allergenicity (conclusion, standard methods) (rabbits): not allergenic
Substance: thymogen
